Here are results for 10 molecules from patent US7001905B2, “Substituted diarylamines as MEK inhibitors” (Warner-Lambert Company, priority 2000, dated 2006).

One series concerns the target T1, MEK (Homo sapiens, UniProt Q02750).
T1 construct: no tag is given for the 2D mutant
As to the kind of experiment: in vitro MEK assay. The class given is biochemical. In outline: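 GST-MEK (10 μg) or activated GST-MEK-2E (S218E/S222E, 5 μg) phosphorylates kinase-dead GST-MAPK-KA (K71A, 5 μg) with 10 μM [γ-32P]ATP in 50 mM Tris pH 7.5 for 15 min at 30 °C. Read-out: SDS-PAGE, autoradiography and scintillation counting of excised bands.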

T1 sequence (Q02750 whole entry S218D/S222D, form open): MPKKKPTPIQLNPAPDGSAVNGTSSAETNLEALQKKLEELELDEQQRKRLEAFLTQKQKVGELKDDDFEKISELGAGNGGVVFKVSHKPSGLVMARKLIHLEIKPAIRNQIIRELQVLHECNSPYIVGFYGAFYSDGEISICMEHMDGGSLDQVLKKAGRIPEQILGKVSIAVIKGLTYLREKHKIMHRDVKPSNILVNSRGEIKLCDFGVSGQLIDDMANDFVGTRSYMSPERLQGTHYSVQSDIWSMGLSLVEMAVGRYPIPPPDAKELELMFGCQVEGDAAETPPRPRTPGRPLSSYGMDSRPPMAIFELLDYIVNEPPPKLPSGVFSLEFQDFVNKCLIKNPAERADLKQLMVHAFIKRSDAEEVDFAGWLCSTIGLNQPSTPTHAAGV

By melting point is commonly meant the temperature, or range, at which the solid turns liquid. The IC50 is the concentration that inhibits the measured activity by half. A higher IC50 goes with weaker potency in that assay. `CNC(=O)c1cc(C(=O)NOCC2CC2)c(Nc2ccc(I)cc2C)c(F)c1F` [Example 4, N^1-Cycloprolylmethoxy-4,5-difluoro-6-(4-iodo-2-methyl-phenylamino)-N^3-methyl-isophthalamide] gave a melting point of 198 to 202 °C. On MEK, the IC50 was determined as 1.1 µM. The corresponding values for `CNC(=O)c1cc2c(c(F)c1F)N(c1ccc(I)cc1C)COC2=O` [Example 2, 7,8-Difluoro-1-(4-iodo-2-methyl-phenyl)-4-oxo-1,4-dihydro-2H-benzo[d][1,3]oxazine-6-carboxylic acid methylamide] are 219 to 223 °C and 6.6 µM. On to `Cc1cc(I)ccc1Nc1c(C(=O)NOCC2CC2)cc(C(=O)N(C)C)c(F)c1F` [Example 6, N^1-Cyclopropylmethoxy-4,5-difluoro-6-(4-iodo-2-methyl-phenylamino)-N^3,N^3-dimethyl-isophthalamide], for which the melting point was 78 to 80 °C. The same molecule registered an IC50 against MEK of 4.3 µM.

Regarding `CNC(=O)c1cc(C(=O)O)c(Nc2ccc(I)cc2C)c(F)c1F` [Example 3, 4,5-Difluoro-6-(-4-iodo-2-methyl-phenylamino)-N-methyl-isophthalamic acid], the melting point lay in the range of 254 to 259 °C. The IC50 at MEK is 2.4 µM. As for `Cc1cc(I)ccc1N1COC(=O)c2cc(C(=O)N(C)C)c(F)c(F)c21` [Example 5, 7,8-Difluoro-1-(4-iodo-2-methyl-phenyl)-4-oxo-1,4-dihydro-2H-benzo[d][1,3]oxazine-6-carboxylic acid dimethylamide], the midpoint of inhibition at MEK, the IC50, lay at 5.8 µM. For the molecule `Cc1cc(I)ccc1N1COC(=O)c2cc(C(=O)N3CC[C@@H](O)C3)c(F)c(F)c21` [Example 8, 7,8-Difluoro-6-((R)-3-hydroxy-pyrrolidine-1-carbonyl)-1-(4-iodo-2-methyl-phenyl)-1,2-dihydro-3,1-benzoxazin-4-one], the “in vitro MEK assay: % inhibition @ 1 μM” value on MEK was 34%.

On to `Cc1cc(I)ccc1Nc1c(C(=O)O)cc(C(=O)N2CCSCC2)c(F)c1F` [Example 99], for which, at MEK, half-maximal inhibition (IC50) was put at 0.15 µM and the “in vitro MEK assay: % inhibition @ 1 μM” value is given as 82%.

As for `CCOC(=O)c1c[nH]nc1NC(=O)c1cc2c(c(F)c1F)N(c1ccc(I)cc1C)COC2=O` [Example 34, 3-{[7,8-Difluoro-1-(4-iodo-2-methyl-phenyl)-4-oxo-1,4-dihydro-2H-3,1-benzoxazine-6-carbonyl]-amino}-1H-pyrazole-4-carboxylic acid ethyl ester], the “in vitro MEK assay: % inhibition @ 1 μM” value at MEK was determined as 72%. As for `Cc1cc(I)ccc1Nc1c(C(=O)O)cc(C(=O)N2CCOCC2)c(F)c1F` [Example 89, 3,4-Difluoro-2-(4-iodo-2-methyl-1-phenylamino)-5-(1-morpholin-4-yl-methanoyl)-benzoic acid], the “in vitro MEK assay: % inhibition @ 1 μM” value at MEK is 89%. The same measure, in the same setting: for `Cc1cc(I)ccc1N1COC(=O)c2cc(C(=O)NC3CCCC[C@@H]3O)c(F)c(F)c21` (stereo in doubt) [Example 60, 7,8-difluoro-1-(4-iodo-2-methyl-phenyl)-4-oxo-1,4-dihydro-2H-3,1-benzoxazine-6-carboxylic acid ((S)-2-hydroxy-cyclohexyl)-amide] the value was 30%.
